We go through 18 compounds from ChEMBL document CHEMBL1145320, “3,4,5-Trisubstituted isoxazoles as novel PPARdelta agonists: Part 1” (Bioorg Med Chem Lett, 2006).

Where only a bound is given, the exact number is not on record here.

By EC50 is commonly meant the concentration at which the effect is half-maximal.

In assay [1] the target is T1, Peroxisome proliferator-activated receptor alpha (Homo sapiens, UniProt Q07869).
T1 sequence (Q07869 whole entry): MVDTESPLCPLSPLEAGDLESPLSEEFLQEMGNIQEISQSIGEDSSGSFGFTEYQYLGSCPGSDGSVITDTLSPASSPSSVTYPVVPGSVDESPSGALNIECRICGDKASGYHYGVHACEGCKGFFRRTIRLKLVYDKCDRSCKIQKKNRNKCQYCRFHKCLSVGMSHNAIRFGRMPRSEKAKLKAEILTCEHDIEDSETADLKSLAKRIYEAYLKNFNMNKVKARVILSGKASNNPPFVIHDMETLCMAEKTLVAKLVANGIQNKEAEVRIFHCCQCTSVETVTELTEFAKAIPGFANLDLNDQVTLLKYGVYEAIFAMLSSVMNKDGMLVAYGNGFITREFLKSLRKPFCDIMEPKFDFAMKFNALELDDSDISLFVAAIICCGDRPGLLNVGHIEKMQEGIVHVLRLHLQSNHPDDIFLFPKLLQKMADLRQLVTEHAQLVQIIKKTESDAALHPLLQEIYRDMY
Kind of assay: Agonist activity at PPARalpha by transactivation assay. It counts as functional.

Assay [2] has as its target T2, Peroxisome proliferator-activated receptor gamma (Homo sapiens, UniProt P37231).
T2 sequence (P37231 whole entry): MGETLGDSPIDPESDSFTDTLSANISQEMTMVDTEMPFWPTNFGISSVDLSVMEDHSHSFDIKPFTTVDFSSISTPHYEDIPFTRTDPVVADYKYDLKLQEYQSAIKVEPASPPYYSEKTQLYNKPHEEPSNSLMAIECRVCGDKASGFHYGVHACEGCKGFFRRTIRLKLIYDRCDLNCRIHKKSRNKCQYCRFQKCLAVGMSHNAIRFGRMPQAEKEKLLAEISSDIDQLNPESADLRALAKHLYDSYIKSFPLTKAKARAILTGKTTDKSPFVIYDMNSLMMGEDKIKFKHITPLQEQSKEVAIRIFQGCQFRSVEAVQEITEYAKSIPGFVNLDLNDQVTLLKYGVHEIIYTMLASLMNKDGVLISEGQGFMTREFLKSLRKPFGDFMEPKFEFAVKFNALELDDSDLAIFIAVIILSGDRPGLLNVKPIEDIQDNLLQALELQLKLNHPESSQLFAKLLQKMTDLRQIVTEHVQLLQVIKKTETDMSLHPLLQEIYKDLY
The assay is described as follows: Agonist activity at PPARgamma by transactivation assay. The format is functional.

Assay [3] has as its target T3, Peroxisome proliferator-activated receptor delta (Homo sapiens, UniProt Q03181).
T3 sequence (Q03181 whole entry): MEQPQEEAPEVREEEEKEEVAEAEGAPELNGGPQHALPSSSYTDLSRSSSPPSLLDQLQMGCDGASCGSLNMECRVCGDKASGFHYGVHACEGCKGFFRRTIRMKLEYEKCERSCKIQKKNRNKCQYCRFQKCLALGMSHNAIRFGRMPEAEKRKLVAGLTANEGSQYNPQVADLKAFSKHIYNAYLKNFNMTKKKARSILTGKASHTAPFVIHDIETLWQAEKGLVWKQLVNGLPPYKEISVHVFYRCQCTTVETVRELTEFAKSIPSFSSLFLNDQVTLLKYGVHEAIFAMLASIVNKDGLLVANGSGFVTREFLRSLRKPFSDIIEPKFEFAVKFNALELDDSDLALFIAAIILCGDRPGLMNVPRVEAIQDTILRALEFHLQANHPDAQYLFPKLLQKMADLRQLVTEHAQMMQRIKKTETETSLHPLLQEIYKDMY
Description: (§1) Agonist activity at PPARdelta by transactivation assay

Assay [4] deals with T3, Peroxisome proliferator-activated receptor delta. This is another data set of the same source.
Description: as §1

On to `Cc1onc(-c2ccc(CC(=O)O)cc2Cl)c1C(=O)NCCOc1ccc(C(F)(F)F)cc1`, for which the EC50 in assay [1] (read-out: EC50), in assay [2] (read-out: EC50) and in assay [3] was more than 10000 nM throughout.

Take `CN(CCOc1ccc(Cl)cc1Cl)C(=O)c1c(-c2ccc(CC(=O)O)cc2Cl)noc1-c1ccccc1`: the EC50 is more than 10000 nM in assay [1] (read-out: EC50), more than 10000 nM in assay [2] (read-out: EC50) and 3670 nM in assay [3].

As for `O=C(O)Cc1ccc(-c2noc(-c3ccccc3)c2C(=O)NCCOc2ccc(Cl)cc2Cl)c(Cl)c1`, the results for the EC50 in assay [1] (read-out: EC50), in assay [2] (read-out: EC50) and in assay [3] were more than 10000 nM, more than 10000 nM and 80 nM, respectively.

Turning to `Cc1cc(SCc2cc(-c3c(Cl)cccc3Cl)no2)ccc1OCC(=O)O`, the EC50 result in assay [1], in assay [2] and in assay [4] was “Not Active” throughout.

In the case of `O=C(O)Cc1ccc(-c2noc(C(=O)CCCOc3ccc(Cl)cc3Cl)c2-c2ccccc2)c(Cl)c1`, the EC50 entry in assay [1], in assay [2] and in assay [4] was “Not Active” in each case.

For `O=C(O)Cc1ccc(-c2noc(-c3ccco3)c2C(=O)NCCOc2ccc(Cl)cc2Cl)c(Cl)c1`, the EC50 in assay [1] (read-out: EC50) was more than 10000 nM; in assay [2] (read-out: EC50), more than 10000 nM; in assay [3], 10 nM.

As to `CC(C)(C)c1onc(-c2ccc(CC(=O)O)cc2Cl)c1C(=O)NCCOc1ccc(Cl)cc1Cl`, the EC50 in assay [1] (read-out: EC50) was more than 10000 nM; in assay [2] (read-out: EC50), more than 10000 nM; in assay [3] it was 2590 nM.

Regarding `O=C(O)Cc1ccc(-c2noc(C3CC3)c2C(=O)NCCOc2ccc(Cl)cc2Cl)c(Cl)c1`, the results for the EC50 in assay [1] (read-out: EC50), in assay [2] (read-out: EC50) and in assay [3] were 1670 nM, 3230 nM and 30 nM, respectively.

As to `Cc1onc(-c2ccc(CC(=O)O)cc2Cl)c1COCCOc1ccc(C(F)(F)F)cc1[N+](=O)[O-]`, the EC50 in assay [1] (read-out: EC50) was 220 nM; in assay [2] (read-out: EC50) it was more than 10000 nM; in assay [3] it was 130 nM.

Regarding `Cc1onc(-c2ccc(CC(=O)O)cc2Cl)c1C(=O)NCCOc1ccc(C(F)(F)F)cc1[N+](=O)[O-]`, the values for the EC50 in assay [1] (read-out: EC50), in assay [2] (read-out: EC50) and in assay [3] were 340 nM, 1250 nM and 4 nM, respectively.

Take `O=C(O)Cc1ccc(-c2noc(-c3ccccc3)c2C(=O)CCCOc2ccc(Cl)cc2Cl)c(Cl)c1`: the EC50 in assay [1] (read-out: EC50) is more than 10000 nM; in assay [2] (read-out: EC50) it was more than 10000 nM; in assay [3], 30 nM.

On to `Cc1onc(-c2ccc(CC(=O)O)cc2Cl)c1C(=O)NCCOc1ccc(C(F)(F)F)cc1C(F)(F)F`, for which the EC50 in assay [1] (read-out: EC50) is more than 10000 nM; in assay [2] (read-out: EC50), more than 10000 nM; in assay [3] it was 260 nM.

Regarding `CC(C)c1onc(-c2ccc(CC(=O)O)cc2Cl)c1C(=O)NCCOc1ccc(Cl)cc1Cl`, the EC50 in assay [1] (read-out: EC50) is 7110 nM; in assay [2] (read-out: EC50), more than 10000 nM; in assay [3], 90 nM.

On to `Cc1onc(-c2ccc(CC(=O)O)cc2Cl)c1C(=O)NCCOc1ccc(Cl)cc1Cl`, for which the 50% effective concentration (EC50) in assay [1] (read-out: EC50) is more than 10000 nM; in assay [2] (read-out: EC50) it was more than 10000 nM; in assay [3] it was 310 nM.

Regarding `Cc1onc(-c2ccc(CC(=O)O)cc2Cl)c1C(=O)NCCOc1ccccc1[N+](=O)[O-]`, the half-maximal effective concentration (EC50) in assay [1] (read-out: EC50), in assay [2] (read-out: EC50) and in assay [3] was more than 10000 nM throughout.

With `CCc1onc(-c2ccc(CC(=O)O)cc2Cl)c1C(=O)NCCOc1ccc(Cl)cc1Cl`, the EC50 in assay [1] (read-out: EC50) was more than 10000 nM; in assay [2] (read-out: EC50), more than 10000 nM; in assay [3], 110 nM.

For the compound `O=C(O)Cc1ccc(-c2noc(-c3ccccc3)c2COCCOc2ccc(Cl)cc2Cl)c(Cl)c1`, the half-maximal effective concentration (EC50) in assay [1] (read-out: EC50) was more than 10000 nM; in assay [2] (read-out: EC50) it was more than 10000 nM; in assay [3] it was 190 nM.

For the compound `Cc1onc(-c2c(Cl)cccc2Cl)c1C(=O)OCCOc1ccc(C(F)(F)F)cc1[N+](=O)[O-]`, the 50% effective concentration (EC50) in assay [1] (read-out: EC50) is more than 10000 nM; in assay [2] (read-out: EC50), more than 10000 nM; in assay [3], 230 nM.
